Laboratory results from publication PMC5530453, “Anti-Parkinson Drug Biperiden Inhibits Enzyme Acetylcholinesterase” (BioMed Research International, 2017).

Target: Acetylcholinesterase (AChE) (Electrophorus electricus, UniProt O42275)
Assay: Ellman's assay with purchased electric eel AChE, Dixon plot
Format: biochemical

Acetylcholinesterase (AChE), sequence (O42275 24-633): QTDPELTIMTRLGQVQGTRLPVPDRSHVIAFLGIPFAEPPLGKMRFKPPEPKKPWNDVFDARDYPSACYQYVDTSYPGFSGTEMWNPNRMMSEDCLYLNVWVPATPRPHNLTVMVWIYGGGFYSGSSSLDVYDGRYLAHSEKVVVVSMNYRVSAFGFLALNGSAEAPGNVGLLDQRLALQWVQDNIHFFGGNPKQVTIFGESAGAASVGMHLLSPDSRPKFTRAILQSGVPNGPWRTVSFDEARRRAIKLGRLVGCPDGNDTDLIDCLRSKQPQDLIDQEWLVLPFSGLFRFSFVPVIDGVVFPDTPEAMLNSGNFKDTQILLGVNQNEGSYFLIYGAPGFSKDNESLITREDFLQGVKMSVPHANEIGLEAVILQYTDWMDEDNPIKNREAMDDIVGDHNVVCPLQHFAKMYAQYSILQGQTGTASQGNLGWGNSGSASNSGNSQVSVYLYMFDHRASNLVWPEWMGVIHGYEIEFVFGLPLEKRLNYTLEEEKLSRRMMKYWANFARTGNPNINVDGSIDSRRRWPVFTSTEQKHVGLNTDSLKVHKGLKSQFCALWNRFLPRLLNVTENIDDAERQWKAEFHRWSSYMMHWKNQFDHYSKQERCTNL

OC(CCN1CCCCC1)(c1ccccc1)C1CC2C=CC1C2 (stereo not drawn) [Biperiden, alpha-bicyclo[2.2.1]hept-5-en-2-yl-alpha-phenyl-1-piperidinepropanol] was tested, and the Ki was 1110 ± 200 µM.
